Numbered stars: 1 amine (or outer) side, 2 acyl side, 3 side chain; on linkers, the order of the positions; unused ones are H or OH. Bridge positions count the residues as written; N and C are the ends. Square brackets hold non-standard residues; d marks the D form. Peptide text beside a SMILES is read from it. * marks the point of attachment. ξ: configuration not given here. Hexadecanoyl(3R-amino) = CCCCCCCCCCCCC[C@H](CC(=O)[*:2])N[*:1]; X5 = CC(C)CCCOc1ccc(-c2ccc(CC[C@H](CC(=O)[*:1])N[*:2])cc2)cc1; X11 = CCCCCOc1ccc(-c2ccc(CC[C@H](CC(=O)[*:1])N[*:2])cc2)cc1; X8 = CCCCCCCCCOc1ccc2cc(CC[C@H](CC(=O)[*:1])N[*:2])ccc2c1; Orn(Nα,Nα-(2-aminoethyl)2) = NCCC[C@@H](C(=O)*)N(CCN)CCN; ξTyr(3-NO2) = NC(Cc1ccc(O)c([N+](=O)[O-])c1)C(=O)O; X15 = CCCCCCCCCCCCCCC[C@H](CC(=O)[*:2])N(C)[*:1]; X16 = NCC(=O)Nc1cc(CC(N[*:1])C(=O)[*:2])ccc1O; X4 = CCCCCCCCCCCCC[C@H](CC(=O)[*:1])O[*:2]; X3 = NCCCN(CCCC(N[*:1])C(=O)[*:2])[*:3]; X2 = NC(=O)CC(O)C(N[*:1])C(=O)[*:2]; X12 = CN(C)CCCC(N[*:1])C(=O)[*:2]; X1 = O=C(C1C(O)CCN1[*:1])[*:2]; ξOrn(3-OH) = NCCC(O)C(N)C(=O)O; ξY = NC(Cc1ccc(O)cc1)C(=O)O; X14 = NCCCNC(CCCN)C(=O)*; X13 = CCCCCCCCCCCCCCCN*; ξHyp = O=C(O)C1CC(O)CN1; ξOrn = NCCCC(N)C(=O)O; ξT = CC(O)C(N)C(=O)O; ξV = CC(C)C(N)C(=O)O; ξP = O=C(O)C1CCCN1; ξA = CC(N)C(=O)O; Sar = CNCC(=O)O
Columns and labels:
Type in all cases: cell-based
mouse hepatocytes = assay: In vitro hepatotoxicity test; details: mouse hepatocyte monolayers, 1 day exposure, morphological evaluation
From the text: The mouse hepatocytes were isolated by a collagenase digestion and cultured in microtest plates. The hepatocyte monolayers were exposed to the test Aerothricins in the culture system for 1 day. After the culture period, the hepatocytes were observed under a microscope and evaluated morphologically. The degree of the morphological alteration (degeneration) of the hepatocytes by the test Aerothricins were compared with WF11243 and LY303366.

Fusarium solani CF1088 = assay: In vitro antifungal activity, broth micro-dilution; details: YNB medium with 0.2% agarose, 1-2 days at 35° C.
Method: (§1) The in vitro antifungal activities of the representative Aerothricins of the present study were evaluated by determining the 50% inhibitory concentration (IC50), which was calculated as the lowest concentration of an antifungal to inhibit the growth of fungus to […] turbidity compared with the drug-free control growth spectrophotometrically.
(§2) The IC50 values were determined by the broth micro-dilution procedure based on NCCLS Approved Standard with the following minor modifications (National Committee for Clinical Laboratory Standards. (1997) Reference method for broth dilution antifungal susceptibility testing for yeasts. Approved standard. Document M27-A). Yeast Nitrogen Base (YNB; Difco Lab.) supplemented with 1% glucose and 0.25% K2HPO4 was used as testing medium for yeast, the same medium solidified with 0.2% low melting point agarose (BRL) was used for filamentous fungi. Inoculum size was 1-3×10^4 cells/ml, and incubation was performed for 1-2 days at 35° C.

[1] = system: Aspegillus fumigatus CF1003; assay: In vitro antifungal activity, broth micro-dilution; details: YNB medium with 0.2% agarose, 1-2 days at 35° C.
Method: as §1, §2

Candida albicans CY1002 = assay: In vitro antifungal activity, broth micro-dilution; details: YNB medium, 1-2 days at 35° C.
Method: as §1, §2

Row | SMILES | Cytotoxicity to hepatocyte (mouse hepatocytes) [µg/mL] | In vitro Antifungal activity, IC50, Fusarium solani CF1088 (Fusarium solani CF1088) [µg/mL] | In vitro Antifungal activity, IC50, Aspegillus fumigatus CF1003 [1] [µg/mL] | In vitro Antifungal activity, IC50, Candida albicans CY1002 (Candida albicans CY1002) [µg/mL]
1 | CCCCCCCCCCOc1ccc(CC[C@@H]2CC(=O)NC(C(C)O)C(=O)NC(C)C(=O)NC(Cc3ccc(O)cc3)C(=O)NC(C(C)C)C(=O)N3CC(O)CC3C(=O)NC(C(C)O)C(=O)NC(C(C)O)C(=O)N3CCC(O)C3C(=O)NC(C(O)CC(N)=O)C(=O)NCC(=O)NC(C(C)O)C(=O)NC(CCCN)C(=O)N2)cc1 (single isomer, unassigned) [Aerothricin 47] | >100 |  |  | 
2 | CCCCCCCCCCCCC[C@@H]1CC(=O)NC(C(C)O)C(=O)NC(C)C(=O)NC(Cc2ccc(OC)cc2)C(=O)NC(C(C)C)C(=O)N2CC(O)CC2C(=O)NC(C(C)O)C(=O)NC(C(C)O)C(=O)N2CCC(O)C2C(=O)NC(C(O)CC(N)=O)C(=O)NCC(=O)NC(C(C)O)C(=O)NC(CCCN(C)C)C(=O)O1 (stereo partly shown) [Aerothricin 12] ([ξT][ξA][ξY](Me)[ξV][ξHyp][ξT][ξT][X1][X2]G[ξT][X12]; linker N-C via X4) |  | 2.20 | 0.10 | 0.09
3 | CCCCCCCCCCCCC[C@@H]1CC(=O)NC(C(C)O)C(=O)NC(C)C(=O)NC(Cc2ccc(O)cc2)C(=O)NC(C(C)C)C(=O)N2CC(O)CC2C(=O)NC(C(C)O)C(=O)NC(C(C)O)C(=O)N2CCC(O)C2C(=O)NC(C(O)CC(N)=O)C(=O)NCC(=O)NC(C(C)O)C(=O)NC(CCCNC(=O)CNC)C(=O)O1 (stereo partly shown) [Aerothricin 14] ([ξT][ξA][ξY][ξV][ξHyp][ξT][ξT][X1][X2]G[ξT][ξOrn](Sar); linker N-C via X4) | >100 |  |  | 
4 | CCCCCCCCCCCCC[C@@H]1CC(=O)NC(C(C)O)C(=O)NC(C)C(=O)NC(Cc2ccc(O)cc2)C(=O)NC(C(C)C)C(=O)N2CC(O)CC2C(=O)NC(C(C)O)C(=O)NC(C(C)O)C(=O)N2CCC(O)C2C(=O)NC(C(O)CC(N)=O)C(=O)NCC(=O)NC(C(C)O)C(=O)NC(CCCNC(=O)C2CCCN2)C(=O)O1 (stereo partly shown) [Aerothricin 15] ([ξT][ξA][ξY][ξV][ξHyp][ξT][ξT][X1][X2]G[ξT][ξOrn](ξP); linker N-C via X4) | >100 |  |  | 
5 | CCCCCCCCCCCCC[C@@H]1CC(=O)NC(C(C)O)C(=O)NC(C)C(=O)NC(Cc2ccc(O)c(NC(=O)CN)c2)C(=O)NC(C(C)C)C(=O)N2CC(O)CC2C(=O)NC(C(C)O)C(=O)NC(C(C)O)C(=O)N2CCC(O)C2C(=O)NC(C(O)CC(N)=O)C(=O)NCC(=O)NC(C(C)O)C(=O)NC(CCCNC(=O)CN)C(=O)O1 (stereo partly shown) [Aerothricin 21] ([ξT][ξA][X16][ξV][ξHyp][ξT][ξT][X1][X2]G[ξT][ξOrn](Gly); linker N-C via X4) | >100 |  |  | 
6 | CCCCCCCCCCCCC[C@@H]1CC(=O)NC(C(C)O)C(=O)NC(C)C(=O)NC(Cc2ccc(O)cc2)C(=O)NC(C(C)C)C(=O)N2CC(O)CC2C(=O)NC(C(C)O)C(=O)NC(C(C)O)C(=O)N2CCC(O)C2C(=O)NC(C(O)CCN)C(=O)NCC(=O)NC(C(C)O)C(=O)NC(CCCN)C(=O)O1 (stereo partly shown) [Aerothricin 31] ([ξT][ξA][ξY][ξV][ξHyp][ξT][ξT][X1][ξOrn(3-OH)]G[ξT][ξOrn]; linker N-C via X4) |  | 0.70 | 0.49 | 0.07
7 | CCCCCCCCCCCCC[C@@H]1CC(=O)NC(C(C)O)C(=O)NC(C)C(=O)NC(Cc2ccc(O)c([N+](=O)[O-])c2)C(=O)NC(C(C)C)C(=O)N2CC(O)CC2C(=O)NC(C(C)O)C(=O)NC(C(C)O)C(=O)N2CCC(O)C2C(=O)NC(C(O)CC(N)=O)C(=O)NCC(=O)NC(C(C)O)C(=O)NC(CCCN)C(=O)N1 (stereo partly drawn) [Aerothricin 39] (cyclo(G[ξT][ξOrn][Hexadecanoyl(3R-amino)][ξT][ξA][ξTyr(3-NO2)][ξV][ξHyp][ξT][ξT][X1][X2])) |  | 0.70 | 0.17 | 0.09
8 | CC(C)CCCOc1ccc(-c2ccc(CC[C@@H]3CC(=O)NC(C(C)O)C(=O)NC(C)C(=O)NC(Cc4ccc(O)cc4)C(=O)NC(C(C)C)C(=O)N4CC(O)CC4C(=O)NC(C(C)O)C(=O)NC(C(C)O)C(=O)N4CCC(O)C4C(=O)NC(C(O)CC(N)=O)C(=O)NCC(=O)NC(C(C)O)C(=O)NC(CCCN)C(=O)N3)cc2)cc1 (stereo partly shown) [Aerothricin 45] ([ξT][ξA][ξY][ξV][ξHyp][ξT][ξT][X1][X2]G[ξT][ξOrn]; linker N-C via X5) | >100 |  |  | 
9 | CCCCCCCCCOc1ccc2cc(CC[C@@H]3CC(=O)NC(C(C)O)C(=O)NC(C)C(=O)NC(Cc4ccc(O)cc4)C(=O)NC(C(C)C)C(=O)N4CC(O)CC4C(=O)NC(C(C)O)C(=O)NC(C(C)O)C(=O)N4CCC(O)C4C(=O)NC(C(O)CC(N)=O)C(=O)NCC(=O)NC(C(C)O)C(=O)NC(CCCN)C(=O)N3)ccc2c1 (stereo partly shown) [Aerothricin 53] ([ξT][ξA][ξY][ξV][ξHyp][ξT][ξT][X1][X2]G[ξT][ξOrn]; linker N-C via X8) | >100 |  |  | 
10 | CCCCCOc1ccc(-c2ccc(CC[C@@H]3CC(=O)NC(C(C)O)C(=O)NC(C)C(=O)NC(Cc4ccc(O)c([N+](=O)[O-])c4)C(=O)NC(C(C)C)C(=O)N4CC(O)CC4C(=O)NC(C(C)O)C(=O)NC(C(C)O)C(=O)N4CCC(O)C4C(=O)NC(C(O)CC(N)=O)C(=O)NCC(=O)NC(C(C)O)C(=O)NC(CCCN)C(=O)N3)cc2)cc1 (stereo partly shown) [Aerothricin 54] ([ξT][ξA][ξTyr(3-NO2)][ξV][ξHyp][ξT][ξT][X1][X2]G[ξT][ξOrn]; linker N-C via X11) |  | 0.74 | 0.17 | 0.15
11 | CCCCCCCCCCCCCCCNC(=O)[C@@H]1CC(=O)NC(C(C)O)C(=O)NC(C)C(=O)NC(Cc2ccc(O)cc2)C(=O)NC(C(C)C)C(=O)N2CC(O)CC2C(=O)NC(C(C)O)C(=O)NC(C(C)O)C(=O)N2CCC(O)C2C(=O)NC(C(O)CC(N)=O)C(=O)NCC(=O)NC(C(C)O)C(=O)NC(CCCN(C)C)C(=O)N1 (stereo partly drawn) [Aerothricin 75] ([ξT][ξA][ξY][ξV][ξHyp][ξT][ξT][X1][X2]G[ξT][X12]D-X13; lactam N-13) |  | 1.40 | 0.10 | 0.15
12 | CCCCCCCCCCCCCCCNC(=O)[C@@H]1CC(=O)NC(C(C)O)C(=O)NC(C)C(=O)NC(Cc2ccc(O)c([N+](=O)[O-])c2)C(=O)NC(C(C)C)C(=O)N2CC(O)CC2C(=O)NC(C(C)O)C(=O)NC(C(C)O)C(=O)N2CCC(O)C2C(=O)NC(C(O)CC(N)=O)C(=O)NCC(=O)NC(C(C)O)C(=O)NC(CCCN)C(=O)N1 (stereo partly drawn) [Aerothricin 77] ([ξT][ξA][ξTyr(3-NO2)][ξV][ξHyp][ξT][ξT][X1][X2]G[ξT][ξOrn]D-X13; lactam N-13) |  | 0.67 | 0.10 | 0.13
13 | CCCCCCCCCCCCCCC[C@@H]1CC(=O)NC(C(C)O)C(=O)NC(C)C(=O)NC(Cc2ccc(O)cc2)C(=O)NC(C(C)C)C(=O)N2CC(O)CC2C(=O)NC(C(C)O)C(=O)NC(C(C)O)C(=O)N2CCC(O)C2C(=O)NC(C(O)CC(N)=O)C(=O)NCC(=O)NC(C(C)O)C(=O)NC(CCCN)C(=O)N1C (stereo partly shown) [Aerothricin 95] (cyclo(G[ξT][ξOrn][X15][ξT][ξA][ξY][ξV][ξHyp][ξT][ξT][X1][X2])) |  | 0.74 | 0.10 | 0.14
14 | CCCCCCCCCCCCC[C@@H]1CC(=O)NC(C(C)O)C(=O)NC(C)C(=O)NC(Cc2ccc(O)cc2)C(=O)NC(C(C)C)C(=O)N2CC(O)CC2C(=O)NC(C(C)O)C(=O)NC(C(C)O)C(=O)N2CCC(O)C2C(=O)NC(C(O)CC(N)=O)C(=O)NCC(=O)NC(C(C)O)C(=O)NC(CCCN(CCCN)C(=O)[C@H](CCCN)N(CCN)CCN)C(=O)O1 (stereo partly shown) [Aerothricin 134] ([ξT][ξA][ξY][ξV][ξHyp][ξT][ξT][X1][X2]G[ξT][X3](Orn(Nα,Nα-(2-aminoethyl)2)); linker N-C via X4) | >100 |  |  | 
15 | CCCCCCCCCCCCC[C@@H]1CC(=O)NC(C(C)O)C(=O)NC(C)C(=O)NC(Cc2ccc(O)cc2)C(=O)NC(C(C)C)C(=O)N2CC(O)CC2C(=O)NC(C(C)O)C(=O)NC(C(C)O)C(=O)N2CCC(O)C2C(=O)NC(C(O)CC(N)=O)C(=O)NCC(=O)NC(C(C)O)C(=O)NC(CCCN(CCCN)C(=O)C(CCCN)NCCCN)C(=O)O1 (stereo partly shown) [Aerothricin 136] ([ξT][ξA][ξY][ξV][ξHyp][ξT][ξT][X1][X2]G[ξT][X3](X14); linker N-C via X4) |  | 0.04 | 0.28 | 0.20
